Test results: patent US20210317141A1, “OXOPYRIDO[1,2-A]PYRIMIDINE COMPOUNDS FOR THE TREATMENT AND PROPHYLAXIS OF BACTERIAL INFECTION” (Hoffmann-La Roche Inc., priority 2018, published 2021)
≈ marks a conversion by molar mass, not a printed value. Where two headings read alike, the source gives them in different places.

What was measured:
[1] = system: K. pneumoniae (ATCC10031); experiment: 50% growth inhibitory concentration (IC50) determination assay, K. pneumoniae; type: cell-based; conditions: Klebsiella pneumoniae, growth inhibition, Iso-Sensitest broth, OD 600 nm over 16 h, * = detection limit
Method: (§1) The in vitro antimicrobial activity of the compounds against E. coli (BW25113, obtained from Coli Genetic Stock Center, #7636) and K. pneumoniae (ATCC10031) was determined according to the following procedure:
(§2) The assay used a 10-points Iso-Sensitest broth medium to measure quantitatively the in vitro activity of the compounds against E. coli BW25113 and K. pneumoniae ATCC 10031.
(§3) Stock compounds in DMSO were serially two-fold diluted (range from 50 to 0.097 μM final concentration) in 384 wells microtiter plates and inoculated with 49 μL the bacterial suspension in Iso-Sensitest broth medium to have a final cell concentration of ˜5×10^5 CFU/mL in a final volume/well of 50 μL/well. Microtiter plates were incubated at 35±2° C.
(§4) Bacterial cell growth was determined with the measurement of optical density at k=600 nm each 20 minutes over a time course of 16 h.
(§5) Growth inhibition was calculated during the logarithmic growth of the bacterial cells with determination of the concentration inhibiting 50% (IC50) of the growth.

E. coli (ATCC 25922) = experiment: Minimal Inhibitory Concentration (MIC) assay; type: cell-based; conditions: Escherichia coli, read-out: MIC (μg/mL) E. coli ATCC 25922
Method: The in vitro potency of compounds to inhibit E. coli (ATCC 25922) growth was assessed by MIC (Minimal Inhibitory Concentration) assay. Samples were prepared from 10 mM DMSO stock solutions. After serial 2-fold dilution in DMSO in a master plate (Greiner, Cat No: 651201), 180 μL sterile distilled water was added to 20 μL each aliquot of the samples. Then […], diluted compounds were transferred into a new assay plate (Costar, 3599).
The growth medium […] Mueller Hinton Broth (CAMHB) was prepared by adding the 20 mg per liter CaCl2) and 20 mg per liter MgCl2 into the MHB medium (Jianglai Company, sterilized).
Vials of each of the test microorganisms were maintained frozen in the vapor phase of a liquid nitrogen freezer. Took out the bacteria E. coli ATCC 25922 (KWIKSTIK, 0335K) from liquid nitrogen freezer, thawed it in room temperature, and diluted the bacterial in the CAMHB medium to achieve a final inoculum of 5×10^5 CFU/mL. 90 μL CAMHB with bacteria was dispensed to the assay plate and pipetted 5 times.
Then the assay plates were incubated for 20 hours at 35° C. in ambient air. Following incubation, the MIC (μg/mL), the lowest concentration of drug that inhibits visible growth of the microorganism was read and recorded throw the microscope.

E. coli (BW25113) = experiment: 50% growth inhibitory concentration (IC50) determination assay, E. coli; type: cell-based; conditions: Escherichia coli, growth inhibition, Iso-Sensitest broth, OD 600 nm over 16 h, 35±2° C., read-out: IC50 (μM) E. coli K12 BW25113
Method: as §1, §2, §3, §4, §5

[2] = Lyophilisation solubility assay (LYSA); type: physicochemical; conditions: aqueous buffer, thermodynamic from solid; 0.05 M phosphate buffer, pH 6.5; * = detection limit
Method: The solubility of compounds of present invention was assessed by LYSA assay. Samples were prepared in duplicate from 10 mM DMSO stock solutions (20 μL) diluted in 30 μL pure DMSO. After evaporation of DMSO with a centrifugal vacuum evaporator, the residue was dissolved in 0.05 M phosphate buffer (150 μL, pH 6.5), stirred for one hour and shook for two hours. After one night, the solution was filtered using a microtiter filter plate. Then the filtrate and its 1/10 dilution were analyzed by HPLC-UV. In addition, a four-point calibration curve was prepared from the 10 mM stock solutions and used for the solubility determination of the compounds.

[3] = ATCC25922, CAMHB, 20 hours at 35° C.

Row | IC50 [1] [µM] | MIC (E. coli (ATCC 25922); [3]) [µg/mL] | IC50 (E. coli (BW25113)) [µM] | solubility thermodynamic [2] [µg/mL] | Structure (SMILES) | MIC (E. coli (ATCC 25922); ATCC25922, 20 h) [µg/mL]
1 | 0.187 | 0.122 (≈ 0.222 µM) | 0.828 |  | CNc1cc(F)c(F)c2c1[nH]c1ncc(-c3cc(N4CCOCC4)c4ncc(C(=O)O)c(=O)n4c3)c(N(C)C)c12 [Example 1.06, 7-[4-(Dimethylamino)-5,6-difluoro-8-(methylamino)-9H-pyrido[2,3-b]indol-3-yl]-9-morpholino-4-oxo-pyrido[1,2-a]pyrimidine-3-carboxylic acid] | 
2 | ≤ 0.098 | 0.598 (≈ 1.25 µM) | 0.262 |  | CNc1cc(F)c(F)c2c1[nH]c1ncc(-c3cc(C)c4ncc(C(=O)O)c(=O)n4c3)c(N(C)C)c12 [Example 1.02, 7-[4-(Dimethylamino)-5,6-difluoro-8-(methylamino)-9H-pyrido[2,3-b]indol-3-yl]-9-methyl-4-oxo-pyrido[1,2-a]pyrimidine-3-carboxylic acid] | 
3 |  | 0.84 (≈ 1.39 µM) |  | > 840 | CNc1cc(F)c(F)c2c1[nH]c1ncc(-c3cc(CN4CCC5CN(C)CC54)c4ncc(C(=O)O)c(=O)n4c3)c(N(C)C)c12 (stereo not drawn) [Example 2.06, 7-[4-(Dimethylamino)-5,6-difluoro-8-(methylamino)-9H-pyrido[2,3-b]indol-3-yl]-9-[(5-methyl-2,3,3a,4,6,6a-hexahydropyrrolo[2,3-c]pyrrol-1-yl)methyl]-4-oxo-pyrido[1,2-a]pyrimidine-3-carboxylic acid] | 
4 | ≤ 0.098 | 0.0996 (≈ 0.176 µM) | 0.738 | 255 (≈ 451 µM) | CNc1cc(F)c(F)c2c1[nH]c1ncc(-c3cc(CN(C)CCOC)c4ncc(C(=O)O)c(=O)n4c3)c(N(C)C)c12 [Example 2.02, 7-[4-(Dimethylamino)-5,6-difluoro-8-(methylamino)-9H-pyrido[2,3-b]indol-3-yl]-9-[[2-methoxyethyl(methyl)amino]methyl]-4-oxo-pyrido[1,2-a]pyrimidine-3-carboxylic acid] | 
5 |  | 0.759 (≈ 1.42 µM) |  | 31 (≈ 58.1 µM) | CNc1c(F)c(F)cc2c1[nH]c1ncc(-c3ccc4ncc(C(=O)O)c(=O)n4c3)c(N3CC[C@@H](N(C)C)C3)c12 [Example 1.27, (R)-7-(4-(3-(Dimethylamino)pyrrolidin-1-yl)-6,7-difluoro-8-(methylamino)-9H-pyrido[2,3-b]indol-3-yl)-4-oxo-4H-pyrido[1,2-a]pyrimidine-3-carboxylic acid] | 
6 | 0.319 | 0.0911 (≈ 0.158 µM) | 0.885 |  | CNc1cc(F)c(F)c2c1[nH]c1ncc(-c3cc(N4CCOCC4)c4ncc(C(=O)O)c(=O)n4c3)c(N3CCCC3)c12 [Example 1.07, 7-[5,6-Difluoro-8-(methylamino)-4-pyrrolidin-1-yl-9H-pyrido[2,3-b]indol-3-yl]-9-morpholino-4-oxo-pyrido[1,2-a]pyrimidine-3-carboxylic acid] | 
7 | 0.183 | 0.169 (≈ 0.365 µM) | 1.97 |  | CNc1cc(Cl)cc2c1[nH]c1ncc(-c3ccc4ncc(C(=O)O)c(=O)n4c3)c(N(C)C)c12 [Example 1.16, 7-(6-Chloro-4-(dimethylamino)-8-(methylamino)-9H-pyrido[2,3-b]indol-3-yl)-4-oxo-4H-pyrido[1,2-a]pyrimidine-3-carboxylic acid] | 
8 |  |  |  |  | CNc1cc(F)c(F)c2c1[nH]c1ncc(-c3ccc4ncc(C(=O)O)c(=O)n4c3)c(N3CCN4CCOCC4C3)c12 (stereo not drawn) [Example 1.28, 7-(5,6-Difluoro-4-(hexahydropyrazino[2,1-c][1,4]oxazin-8(1H)-yl)-8-(methylamino)-9H-pyrido[2,3-b]indol-3-yl)-4-oxo-4H-pyrido[1,2-a]pyrimidine-3-carboxylic acid compound with formic acid] | 0.356 (≈ 0.634 µM)
9 | 0.11 | 0.594 (≈ 1.25 µM) | 0.808 |  | CNc1cc(F)c(F)c2c1[nH]c1ncc(-c3cc(C)c4ncc(C(=O)O)c(=O)n4c3)c(C3CC3)c12 [Example 3.01, 7-[4-Cyclopropyl-5,6-difluoro-8-(methylamino)-9H-pyrido[2,3-b]indol-3-yl]-9-methyl-4-oxo-pyrido[1,2-a]pyrimidine-3-carboxylic Acid] | 
10 | ≤ 0.098 | 0.152 (≈ 0.278 µM) | 0.663 | 19 (≈ 34.7 µM) | CNc1cc(F)c(F)c2c1[nH]c1ncc(-c3cc(CN(C)C)c4ncc(C(=O)O)c(=O)n4c3)c(N3CCCC3)c12 [Example 1.15, 7-(5,6-Difluoro-8-(methylamino)-4-(pyrrolidin-1-yl)-9H-pyrido[2,3-b]indol-3-yl)-9-((dimethylamino)methyl)-4-oxo-4H-pyrido[1,2-a]pyrimidine-3-carboxylic acid] | 
11 |  |  |  | 60 (≈ 110 µM) | CNc1cc(F)c(F)c2c1[nH]c1ncc(-c3ccc4ncc(C(=O)O)c(=O)n4c3)c(N3CCC4CN(C)CC43)c12 (stereo not drawn) [Example 1.08, 7-[5,6-Difluoro-4-(5-methyl-2,3,3a,4,6,6a-hexahydropyrrolo[2,3-c]pyrrol-1-yl)-8-(methylamino)-9H-pyrido[2,3-b]indol-3-yl]-4-oxo-pyrido[1,2-a]pyrimidine-3-carboxylic acid] | 
12 |  | 0.0707 (≈ 0.118 µM) |  | 165 (≈ 276 µM) | CNc1cc(F)c(F)c2c1[nH]c1ncc(-c3ccc4ncc(C(=O)O)c(=O)n4c3)c(N3CCC(CN(C)CC(F)F)C3)c12 (stereo not drawn) [Example 1.20, 7-(4-(3-(((2,2-Difluoroethyl)(methyl)amino)methyl)pyrrolidin-1-yl)-5,6-difluoro-8-(methylamino)-9H-pyrido [2,3-b]indol-3-yl)-4-oxo-4H-pyrido[1,2-a]pyrimidine-3-carboxylic acid] | 
13 |  | 0.164 (≈ 0.293 µM) |  | 275 (≈ 491 µM) | CNc1cc(F)c(F)c2c1[nH]c1ncc(-c3cc(C)c4ncc(C(=O)O)c(=O)n4c3)c(N3CCC4CN(C)CC43)c12 (stereo not drawn) [Example 1.33, 7-[5,6-Difluoro-4-(5-methyl-2,3,3a,4,6,6a-hexahydropyrrolo[2,3-c]pyrrol-1-yl)-8-(methylamino)-9H-pyrido[2,3-b]indol-3-yl]-9-methyl-4-oxo-pyrido[1,2-a]pyrimidine-3-carboxylic acid] | 
14 |  |  |  | 43 (≈ 78.2 µM) | CNc1cc(F)c(F)c2c1[nH]c1ncc(-c3cc(N4CCOCC4)c4ncc(C(=O)O)c(=O)n4c3)c(N(C)C)c12 [Example 1.32, 7-[4-(Dimethylamino)-5,6-difluoro-8-(methylamino)-9H-pyrido[2,3-b]indol-3-yl]-9-morpholino-4-oxo-pyrido[1,2-a]pyrimidine-3-carboxylic acid] | 
15 | ≤ 0.098 | 0.0871 (≈ 0.181 µM) | 0.458 |  | CNc1cc(F)c(Cl)c2c1[nH]c1ncc(-c3ccc4ncc(C(=O)O)c(=O)n4c3)c(N(C)C)c12 [Example 1.23, 7-(5-Chloro-4-(dimethylamino)-6-fluoro-8-(methylamino)-9H-pyrido[2,3-b]indol-3-yl)-4-oxo-4H-pyrido[1,2-a]pyrimidine-3-carboxylic acid] | 
16 |  | 0.697 (≈ 1.27 µM) |  |  | CNc1cc(F)cc2c1[nH]c1ncc(-c3ccc4ncc(C(=O)O)c(=O)n4c3)c(N3CCC(c4ccccc4)C3)c12 (stereo not drawn) [Example 1.25, 7-(6-Fluoro-8-(methylamino)-4-(3-phenylpyrrolidin-1-yl)-9H-pyrido[2,3-b]indol-3-yl)-4-oxo-4H-pyrido[1,2-a]pyrimidine-3-carboxylic acid] | 
17 |  |  |  | 65 (≈ 111 µM) | CNc1cc(F)c(F)c2c1[nH]c1ncc(-c3ccc4ncc(C(=O)O)c(=O)n4c3)c(N3CC(CN(C)C)C(F)(F)C3)c12 (stereo not drawn) [Example 1.22, 7-[4-[4-[(dimethylamino)methyl]-3,3-difluoro-pyrrolidin-1-yl]-5,6-difluoro-8-(methylamino)-9H-pyrido[2,3-b]indol-3-yl]-4-oxo-pyrido[1,2-a]pyrimidine-3-carboxylic acid] | 
